Assay results as given in patent US8956589B2, “Imaging diagnostic agent and extracorporeal diagnostic agent for incurable neurological diseases” (Shiga University of Medical Science, priority 2009, dated 2015).

Assays:
[1] = molecular target: T1, amyloid β peptide aggregates (Homo sapiens (Human), UniProt P05067); assay: Quantity determination of amyloid β aggregates by flow cytometry with anti-Aβ antibody microspheres; details: FACS, 5 to 60 minutes at 4° C., background of nonspecific IgG1 microspheres subtracted
Description: The washing operation was performed as follows: 0.75 mL of PBS-T was added, the resultant mixture was centrifuged at 10,000×G for 5 minutes, and then the supernatant was removed. […] During the reaction, the mixture was agitated every 5 to 15 minutes. After the reaction, the microspheres were washed 3 times by the same method above, then suspended in PBS-T 0.25 mL, and kept at 4° C. until they were used. Negative control microspheres were prepared by use of a nonspecific mouse IgG1 antibody (by SIGMA, No. M 9269, mouse myeloma-derived IgG1, 1 mg/mL) by the same method. […] By subtracting as a background the analysis value of the negative control microspheres to which the nonspecific mouse IgG1 antibody was bound, the number of counts of anti Aβ antibody-specific fluorescence positive microsphere particles was determined.

[2] = molecular target: amyloid β peptide aggregates (1-40) (Homo sapiens (Human), UniProt P05067); format: binding; details: aggregates 1 μM, thioflavin-T 3 μM, compound 0.02 to 20 μM, 30 minutes at 23° C., pH 7.4; read-out: Amyloid binding property (IC50)
Description: The binding capacity of the compounds to an amyloid β peptide aggregate was quantitatively measured by a thioflavin-T fluorescence inhibition test. […] The resultant solution was cause to react for 30 minutes at 23° C. with the light shielded. Then, the fluorescence of thioflavin-T was measured under a condition of Ex=440 nm, Em=490 nm, Cutoff filter=475 nm. The IC50 values were calculated by using an analysis software, GraphPad PRISM Ver.5 (GraphPad Software, Inc.).

[3] = molecular target: T1, amyloid β peptide aggregates; assay: Binding to and release from precipitated amyloid β peptide aggregates (absorbance of supernatant)
Description: Each of compound 23, compound 1, and compound 24 is dissolved at a concentration of 2 μg/mL, in a phosphate buffer, and then amyloid β peptide aggregates are added to each solution, and the resultant solution is caused to react for 1 hour. Then, the solution is centrifuged for 10 minutes at 6,000 rpm, to separate the amyloid β peptide aggregates. A supernatant was removed, and an absorbance measurement was performed to measure the quantity of the compound that had not bound to the amyloid peptide aggregates and that were contained in the supernatant. The obtained quantity was subtracted from the original quantity of the compound, whereby the quantity of the compound that had bound to the amyloid β peptide aggregates was calculated.
Next, the precipitated amyloid β peptide aggregates were washed, a buffer was added thereto, and the quantity of the compound that got released was measured. Then, the rate of the compound that had bound to amyloid β peptide aggregates and then was eluted into the buffer was calculated using the original quantity of the compound as 100%.

[4] = system: senile plaque; assay: 19F-MR image measurement in amyloid precursor protein transgenic mouse (Tg2576); format: in vivo; details: tail vein, 8 mg/ml 250 μl, measured for 3 hours after 3 hours post administration
Description: A quantity of 4.5 mg of compound (I) was measured, and 0.112 ml of Cremophol EL was added to the measured compound. The compound was dissolved by use of a glass stick while the mixture being heated. Then, 0.45 ml of saline was added to the mixture to prepare an administration solution (8 mg/ml).
This administration solution 250 μl was administered, in one shot (about 90 seconds), to the tail vein of an amyloid precursor protein transgenic mouse (Tg2576, created according to the method disclosed in Science, 274,99 (1996)) under anesthesia by pentobarbital sodium.
After the administration was ended, with the mouse under anesthesia, the head of the mouse was continuously measured in units of 1 hour by use of an MRI device. Then, pieces of data were added to create images. ^19F-MRI brain images were obtained by chemical shift imaging method (CSI method). The MRI device that was used was 7T Unity Inova MR Scanner (by Varian).

[5] = system: senile plaques; assay: Brain tissue staining after in vivo administration; set-up: species or system mouse
Description: The brain of the mouse scanned by ^19F-MRI in test example 2 was taken out and fixed for 2 days in a 4%-formalin solution, and then placed in a 15%-sucrose solution for cryoprotection. Then, a 20 μm-thick slice was created by a cryostat. Next, the slice was caused to react with a rabbit antihuman amyloid β polyclonal antibody (IBL, 0.2 μg/ml) at 4° C. overnight. Further, the sample was washed with PBS-T for 10 minutes 3 times, and then caused to react with Alexa 647 anti-rabbit IgG antibody (Molecular Probes, 500-fold dilution) for 4 hours at room temperature. This sample was washed with PBS-T for 10 minutes 3 times, and then counterstained with cresyl violet for 1 minute. Then, the sample was further washed with distilled water, and then enclosed with glycerol, and this sample was used for observation. The binding capacity of the compound to a senile plaque was observed by an inverted fluorescence microscope. It should be noted that a compound image was measured by use of the FITC filter and an amyloid β protein image was measured by means of the Cy5 filter. The same treatment was performed onto a normal mouse.

[6] = molecular target: T1, amyloid β peptide aggregates; assay: Model experiment of in-vitro diagnostic agent (colour change of solution)
Description: Amyloid β peptide aggregates were prepared by the method described in test example 6, and caused to precipitate in the solution by prolonging the reaction time. After the aggregates were prepared in this manner, the precipitation containing the amyloid β peptide aggregates and a supernatant not containing the amyloid β peptide aggregates were separated. The precipitation containing the amyloid aggregates was suspended at a concentration of 100 μM, in a buffer. Then, each of compounds 23 and 1 was dissolved at a concentration of 20 μg/ml in a 50 mM phosphate buffer (pH 7.5) containing 100 mM NaCl. For each compound, four kinds of liquid mixtures were prepared, that is, a liquid mixture obtained by adding 100 μl of a buffer into 100 μl of the compound containing solution (A of FIG. 13); a liquid mixture obtained by adding 100 μl of a buffer in which amyloid β peptides before agglutination reaction were dissolved, to 100 μl of the compound containing solution (B of FIG. 13); a liquid mixture obtained by adding 100 μl of a buffer in which amyloid β peptide aggregates were suspended, to 100 μl of the compound containing solution (C of FIG. 13); and a liquid mixture obtained by adding 100 μl of a buffer in which amyloid β peptide aggregates were suspended, to 100 μl of a buffer not containing a compound (D of FIG. 13). Then, the four kinds of liquid mixtures were left to stand at room temperature. […] Only the sample in which compound 1 and amyloid β peptide aggregates were mixed began to be stained in red after 5 minutes, and the color became gradually stronger and changed into strong red after about 30 minutes. […] When the absorption spectrum of the sample that had turned into red was measured, the peak had shifted towards a longer wavelength. […] As a result, it is considered that the keto/enol equilibrium in the solution was lost, and structural changes happened, that is, the keto bodies newly turned into enol bodies in the solution.

[7] = compound 20 μg/ml solution mixed with amyloid β peptide aggregates, room temperature

T1 sequence (P05067 672-711): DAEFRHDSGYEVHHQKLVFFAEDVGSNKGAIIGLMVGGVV
amyloid β peptide aggregates (1-40), sequence (P05067 672-711): as above

COC(=O)CCC(C(=O)/C=C/c1ccc(O)c(OC(F)(F)F)c1)C(=O)/C=C/c1ccc(O)c(OC(F)(F)F)c1 [Compound 1, 1,7-bis(4′-hydroxy-3′-trifluoromethoxyphenyl)-4-methoxycarbonylethyl-1,6-heptadiene-3,5-dione]
counts of fluorescence positive microsphere particles depending on aggregate concentration [1]: quantitativeness was confirmed
IC50 [2]: 440 nM
binding rate to amyloid β peptide aggregates ([3]; compound 2 μg/mL in phosphate buffer, 1 hour reaction): 57%
rate of compound released (eluted into buffer) from amyloid β peptide aggregates ([3]; washed precipitated aggregates, buffer added, original quantity as 100%): highest value
19F-MRI signal in brain [4]: signals that are assumed to be corresponding to a senile plaque were detected in the brain
transmissiveness through the blood-brain barrier ([5]; Tg2576 mouse after i.v. administration): confirmed
binding to senile plaques in vivo ([5]; brain slices of Tg2576 mouse after i.v. administration, fluorescence vs amyloid β antibody stain): sufficient binding
time at which colour changed into strong red [6, 7]: about 30 minutes
time at which sample began to be stained in red [6, 7]: 5 min
colour of sample with amyloid β peptides before agglutination reaction ([6]; compound 20 μg/ml solution mixed with non-aggregated amyloid β peptides): did not change
